Reference: patent US5977063A, “Alkylated hexapeptides” (Eli Lilly and Company, priority 1998, dated 1999)

What was measured:
Format in all cases: cell-based
[1] = system: Staphylococcus aureus 446; test: MIC, standard broth micro-dilution assay, SA 446; design: unit not given here
Description: (§1) The antibacterial efficacy of the present compounds is illustrated by Table II. The minimal inhibitory concentrations (MICs) were determined using a standard broth micro-dilution assay.

[2] = system: Staphylococcus aureus 489; test: MIC, standard broth micro-dilution assay, SA 489; design: unit not given here
Description: as §1

[3] = system: Streptococcus pneumoniae P1; test: MIC, standard broth micro-dilution assay, SPN P1; design: unit not given here
Description: as §1

[4] = system: Enterococcus faecium and faecalis (SENSITIVE); test: MIC, standard broth micro-dilution assay, SENSITIVE enterococci; design: unit not given here; settings: geometric mean of 4-6 isolates
Description: as §1

[5] = system: Staphylococcus aureus 447; test: MIC, standard broth micro-dilution assay, SA 447; design: unit not given here
Description: as §1

[6] = system: Staphylococcus haemolyticus 415; test: MIC, standard broth micro-dilution assay, SH 415; design: unit not given here
Description: as §1

[7] = system: Enterococcus faecium and faecalis (RESISTANT); settings: geometric mean of 4-6 isolates
Description: as §1

[8] = system: Streptococcus pyogenes C203; test: MIC, standard broth micro-dilution assay, SPY C203; design: unit not given here
Description: as §1

[9] = system: Staphylococcus epidermidis 270; test: MIC, standard broth micro-dilution assay, SE 270; design: unit not given here
Description: as §1

[10] = system: Staphylococcus haemolyticus 105; test: MIC, standard broth micro-dilution assay, SH 105; design: unit not given here
Description: as §1

C[C@@H]1O[C@@H](O[C@@H]2c3ccc(c(Cl)c3)Oc3cc4cc(c3O[C@@H]3O[C@H](CO)[C@@H](O)[C@H](O)[C@H]3O[C@H]3C[C@](C)(NCc5ccc(-c6ccccc6)cc5)[C@@H](O)[C@H](C)O3)Oc3ccc(cc3Cl)[C@@H](O)[C@@H](NCCCCCCc3ccccc3)C(=O)N[C@@H](CC(N)=O)C(=O)N[C@H]4C(=O)N[C@H]3C(=O)N[C@@H]2C(=O)N[C@H](C(=O)O)c2cc(O)cc(O)c2-c2cc3ccc2O)C[C@](C)(N)[C@H]1O [Example 20, N^1 -(6-PHENYL-n-HEXYL)-N^DISACC -(p-PHENYLBENZYL)-DESLEUCYL-A82846B]
Minimal Inhibitory Concentration (MIC) SA 446 [1]: 4 | Minimal Inhibitory Concentration (MIC) SA 489 [2]: 4 | Minimal Inhibitory Concentration (MIC) SPN P1 [3]: ≤ .06 | Minimal Inhibitory Concentration (MIC) SENSITIVE [4]: 11 | Minimal Inhibitory Concentration (MIC) SA 447 [5]: 4 | Minimal Inhibitory Concentration (MIC) SH 415 [6]: 1 | Minimal Inhibitory Concentration (MIC) RESISTANT [7]: 64 | Minimal Inhibitory Concentration (MIC) SPY C203 [8]: ≤ .06 | Minimal Inhibitory Concentration (MIC) SE 270 [9]: 1 | Minimal Inhibitory Concentration (MIC) SH 105 [10]: 1

C[C@@H]1O[C@@H](O[C@@H]2c3ccc(c(Cl)c3)Oc3cc4cc(c3O[C@@H]3O[C@H](CO)[C@@H](O)[C@H](O)[C@H]3O[C@H]3C[C@](C)(NCCCCCCc5ccccc5)[C@@H](O)[C@H](C)O3)Oc3ccc(cc3Cl)[C@@H](O)[C@@H](NCCCCCCc3ccccc3)C(=O)N[C@@H](CC(N)=O)C(=O)N[C@H]4C(=O)N[C@H]3C(=O)N[C@@H]2C(=O)N[C@H](C(=O)O)c2cc(O)cc(O)c2-c2cc3ccc2O)C[C@](C)(N)[C@H]1O [Example 15, N^1,N^DISACC -BIS(6-PHENYL-n-HEXYL) -DESLEUCYL-A82846B]
Minimal Inhibitory Concentration (MIC) SA 446 [1]: 4 | Minimal Inhibitory Concentration (MIC) SA 489 [2]: 2 | Minimal Inhibitory Concentration (MIC) SPN P1 [3]: 0.5 | Minimal Inhibitory Concentration (MIC) SENSITIVE [4]: 6 | Minimal Inhibitory Concentration (MIC) SA 447 [5]: 2 | Minimal Inhibitory Concentration (MIC) SH 415 [6]: 2 | Minimal Inhibitory Concentration (MIC) RESISTANT [7]: 8 | Minimal Inhibitory Concentration (MIC) SPY C203 [8]: 0.125 | Minimal Inhibitory Concentration (MIC) SE 270 [9]: 2 | Minimal Inhibitory Concentration (MIC) SH 105 [10]: 1

C[C@@H]1O[C@@H](O[C@@H]2c3ccc(c(Cl)c3)Oc3cc4cc(c3O[C@@H]3O[C@H](CO)[C@@H](O)[C@H](O)[C@H]3O[C@H]3C[C@](C)(NCc5ccc(-c6ccccc6)cc5)[C@@H](O)[C@H](C)O3)Oc3ccc(cc3Cl)[C@@H](O)[C@@H](NCc3ccc(-c5cc(C(F)(F)F)cc(C(F)(F)F)c5)cc3)C(=O)N[C@@H](CC(N)=O)C(=O)N[C@H]4C(=O)N[C@H]3C(=O)N[C@@H]2C(=O)N[C@H](C(=O)O)c2cc(O)cc(O)c2-c2cc3ccc2O)C[C@](C)(N)[C@H]1O [Example 26, N^1 -(p-(3,5-BIS-(TRIFLUOROMETHYL)-PHENYL)BENZYL)-N^DISACC -(p-PHENYLBENZYL)-DESLEUCYL-A82846B]
Minimal Inhibitory Concentration (MIC) SA 446 [1]: 8 | Minimal Inhibitory Concentration (MIC) SA 489 [2]: 4 | Minimal Inhibitory Concentration (MIC) SPN P1 [3]: ≤ .06 | Minimal Inhibitory Concentration (MIC) SENSITIVE [4]: 6.1 | Minimal Inhibitory Concentration (MIC) SA 447 [5]: 4 | Minimal Inhibitory Concentration (MIC) SH 415 [6]: 4 | Minimal Inhibitory Concentration (MIC) RESISTANT [7]: 5.7 | Minimal Inhibitory Concentration (MIC) SPY C203 [8]: 0.25 | Minimal Inhibitory Concentration (MIC) SE 270 [9]: 4 | Minimal Inhibitory Concentration (MIC) SH 105 [10]: 2

CCCCCCN[C@H]1C(=O)N[C@@H](CC(N)=O)C(=O)N[C@H]2C(=O)N[C@H]3C(=O)N[C@H](C(=O)N[C@H](C(=O)O)c4cc(O)cc(O)c4-c4cc3ccc4O)[C@H](O[C@H]3C[C@](C)(N)[C@@H](O)[C@H](C)O3)c3ccc(c(Cl)c3)Oc3cc2cc(c3O[C@@H]2O[C@H](CO)[C@@H](O)[C@H](O)[C@H]2O[C@H]2C[C@](C)(N)[C@@H](O)[C@H](C)O2)Oc2ccc(cc2Cl)[C@H]1O [Example 10, N^1 -n-HEXYLDESLEUCYL-A82846B]
Minimal Inhibitory Concentration (MIC) SA 446 [1]: 32 | Minimal Inhibitory Concentration (MIC) SA 489 [2]: 16 | Minimal Inhibitory Concentration (MIC) SPN P1 [3]: 32 | Minimal Inhibitory Concentration (MIC) SENSITIVE [4]: > 128 | Minimal Inhibitory Concentration (MIC) SA 447 [5]: 32 | Minimal Inhibitory Concentration (MIC) SH 415 [6]: 64 | Minimal Inhibitory Concentration (MIC) RESISTANT [7]: > 128 | Minimal Inhibitory Concentration (MIC) SPY C203 [8]: 16 | Minimal Inhibitory Concentration (MIC) SE 270 [9]: 32 | Minimal Inhibitory Concentration (MIC) SH 105 [10]: 64

C[C@@H]1O[C@@H](O[C@@H]2c3ccc(c(Cl)c3)Oc3cc4cc(c3O[C@@H]3O[C@H](CO)[C@@H](O)[C@H](O)[C@H]3O[C@H]3C[C@](C)(NCc5ccc(-c6ccccc6)cc5)[C@@H](O)[C@H](C)O3)Oc3ccc(cc3Cl)[C@@H](O)[C@@H](NCc3ccc(O)cc3)C(=O)N[C@@H](CC(N)=O)C(=O)N[C@H]4C(=O)N[C@H]3C(=O)N[C@@H]2C(=O)N[C@H](C(=O)O)c2cc(O)cc(O)c2-c2cc3ccc2O)C[C@](C)(N)[C@H]1O [Example 17, N^1 -(p-HYDROXYBENZYL)-N^DISACC -(p-PHENYLBENZYL)-DESLEUCYL-A82846B]
Minimal Inhibitory Concentration (MIC) SA 446 [1]: 1 | Minimal Inhibitory Concentration (MIC) SA 489 [2]: 1 | Minimal Inhibitory Concentration (MIC) SPN P1 [3]: ≤ .06 | Minimal Inhibitory Concentration (MIC) SENSITIVE [4]: 2.6 | Minimal Inhibitory Concentration (MIC) SA 447 [5]: 0.5 | Minimal Inhibitory Concentration (MIC) SH 415 [6]: 1 | Minimal Inhibitory Concentration (MIC) RESISTANT [7]: 27 | Minimal Inhibitory Concentration (MIC) SPY C203 [8]: ≤ .06 | Minimal Inhibitory Concentration (MIC) SE 270 [9]: 0.5 | Minimal Inhibitory Concentration (MIC) SH 105 [10]: 0.5

C[C@@H]1O[C@@H](O[C@H]2[C@H](Oc3c4cc5cc3Oc3ccc(cc3Cl)[C@@H](O[C@H]3C[C@](C)(N)[C@@H](O)[C@H](C)O3)[C@@H]3NC(=O)[C@H](NC(=O)[C@@H]5NC(=O)[C@H](CC(N)=O)NC(=O)[C@H](NCc5ccc(O)cc5)[C@H](O)c5ccc(c(Cl)c5)O4)c4ccc(O)c(c4)-c4c(O)cc(O)cc4[C@@H](C(=O)O)NC3=O)O[C@H](CO)[C@@H](O)[C@@H]2O)C[C@](C)(N)[C@H]1O [Example 13, N^1 -(p-HYDROXYBENZYL)-DESLEUCYL-A82846B]
Minimal Inhibitory Concentration (MIC) SA 446 [1]: 16 | Minimal Inhibitory Concentration (MIC) SA 489 [2]: 8 | Minimal Inhibitory Concentration (MIC) SPN P1 [3]: ≤ .06 | Minimal Inhibitory Concentration (MIC) SENSITIVE [4]: 4 | Minimal Inhibitory Concentration (MIC) SA 447 [5]: 32 | Minimal Inhibitory Concentration (MIC) SH 415 [6]: > 64 | Minimal Inhibitory Concentration (MIC) RESISTANT [7]: 54 | Minimal Inhibitory Concentration (MIC) SPY C203 [8]: 0.25 | Minimal Inhibitory Concentration (MIC) SE 270 [9]: 32 | Minimal Inhibitory Concentration (MIC) SH 105 [10]: > 64

CSc1ccc(CN[C@H]2C(=O)N[C@@H](CC(N)=O)C(=O)N[C@H]3C(=O)N[C@H]4C(=O)N[C@H](C(=O)N[C@H](C(=O)O)c5cc(O)cc(O)c5-c5cc4ccc5O)[C@H](O[C@H]4C[C@](C)(N)[C@@H](O)[C@H](C)O4)c4ccc(c(Cl)c4)Oc4cc3cc(c4O[C@@H]3O[C@H](CO)[C@@H](O)[C@H](O)[C@H]3O[C@H]3C[C@](C)(N)[C@@H](O)[C@H](C)O3)Oc3ccc(cc3Cl)[C@H]2O)cc1 [Example 24, N^1 -(p-(METHYLTHIO)-BENZYL)DESLEUCYL-A82846B]
Minimal Inhibitory Concentration (MIC) SA 446 [1]: 32 | Minimal Inhibitory Concentration (MIC) SA 489 [2]: 16 | Minimal Inhibitory Concentration (MIC) SPN P1 [3]: 8 | Minimal Inhibitory Concentration (MIC) SENSITIVE [4]: > 128 | Minimal Inhibitory Concentration (MIC) SA 447 [5]: 32 | Minimal Inhibitory Concentration (MIC) SH 415 [6]: 64 | Minimal Inhibitory Concentration (MIC) RESISTANT [7]: > 128 | Minimal Inhibitory Concentration (MIC) SPY C203 [8]: 8 | Minimal Inhibitory Concentration (MIC) SE 270 [9]: 32 | Minimal Inhibitory Concentration (MIC) SH 105 [10]: 32
